Consider 4 compounds from ChEMBL document CHEMBL5143518, “Pyridazino-pyrrolo-quinoxalinium salts as highly potent and selective leishmanicidal agents targeting trypanothione reductase” (Eur J Med Chem, 2022).

Series [1] concerns the target T1, Trypanothione reductase (Leishmania infantum, UniProt A4HSF7). In words: Inhibition of recombinant His-tagged Leishmania infantum TryR oxidoreductase activity expressed in Escherichia coli BL21 (DE3) using TS2 and NADPH as substrate by DTNB-reagent based spectrophotometric method.
In series [2] the test system is Leishmania infantum. The experiment in a line: Leishmanicidal activity against axenic amastigote stage of Leishmania infantum MCAN/ES/89/IPZ229/1/89 assessed as reduction of proliferation of amastigotes incubated for 24 hrs by propidium iodide staining based flow cytometry. The settings on record: MCAN/ES/89/IPZ229/1/89, 24 h. In kind it is functional, organism-based.

Series [3] is described as follows: Cytotoxicity against human THP-1 cells assessed as reduction in cell proliferation incubated for 24 hrs by propidium iodide staining based flow cytometry.
Series [4] can be described thus: Selectivity index, ratio of LC50 for cytotoxicity against human THP-1 cells to EC50 of leishmanicidal activity against axenic amastigote stage of Leishmania infantum MCAN/ES/89/IPZ229/1/89.
For series [5], the system named is Leishmania infantum. In words: Leishmanicidal activity against GFP-expressing axenic amastigote stage of Leishmania infantum MCAN/ES/89/IPZ229/1/89 infected in human THP-1 macrophage cells assessed as reduction in intracellular amastigotes incubated for 48 hrs by propidium iodide staining based flow cytometry. It counts as functional, organism-based. The conditions noted are these: MCAN/ES/89/IPZ229/1/89, THP-1, 48 h.

Series [6] addresses T1, Trypanothione reductase. In words: Non competitive type inhibition of recombinant His-tagged Leishmania infantum TryR oxidoreductase activity expressed in Escherichia coli BL21 (DE3) assessed as inhibition constant using NADPH and varying concentration of TS2 as substrate by double reciprocal Lineweaver-Burk plot analysis.
Series [7] addresses Trypanothione reductase (Leishmania infantum) (UniProt A4HSF7). In words: Uncompetitive type inhibition of recombinant His-tagged Leishmania infantum TryR oxidoreductase activity expressed in Escherichia coli BL21 (DE3) assessed as inhibition constant using TS2 and varying concentration of NADPH as substrate by double reciprocal Lineweaver-Burk plot analysis.
Series [8] shares this target. The experiment in a line: Inhibition of recombinant His-tagged Leishmania infantum TryR expressed in Escherichia coli BL21 (DE3) assessed as TryR mediated cytochrome c reduction in presence of NADPH at 10 uM by spectrophotometric method.

A word on the IC50: it is the point on the concentration scale where inhibition reaches its midpoint. As a reminder, the EC50 is the concentration at which the effect is half-maximal. The CC50 is the concentration that lowers cell viability or growth by half. One may read the Ki as the equilibrium dissociation constant of an inhibitor or competing ligand from its target.

The source made the active and inactive calls. No cut-off for these calls is given here.

T1 sequence (A4HSF7 whole entry): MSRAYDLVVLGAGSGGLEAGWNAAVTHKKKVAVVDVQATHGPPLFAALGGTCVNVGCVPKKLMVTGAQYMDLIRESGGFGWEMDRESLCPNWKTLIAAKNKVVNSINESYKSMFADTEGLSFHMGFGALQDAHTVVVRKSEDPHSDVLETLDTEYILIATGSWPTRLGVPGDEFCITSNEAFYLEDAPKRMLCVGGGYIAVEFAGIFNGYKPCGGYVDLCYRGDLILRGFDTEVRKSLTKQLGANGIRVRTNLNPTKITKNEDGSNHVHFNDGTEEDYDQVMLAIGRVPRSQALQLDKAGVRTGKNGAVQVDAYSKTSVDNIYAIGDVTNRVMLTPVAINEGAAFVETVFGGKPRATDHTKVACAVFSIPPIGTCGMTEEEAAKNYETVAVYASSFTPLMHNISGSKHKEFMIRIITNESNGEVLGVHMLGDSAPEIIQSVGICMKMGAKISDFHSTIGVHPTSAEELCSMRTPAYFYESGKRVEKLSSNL
Sequence of Trypanothione reductase (Leishmania infantum) (A4HSF7 as listed by the source): as the sequence (A4HSF7 whole entry) above

As to `CCc1cc2c3ccc(Br)n3c3cc(Cl)ccc3[n+]2nc1CC`, the IC50 on Trypanothione reductase [1] was 2980 nM. The values for the EC50 in the series with Leishmania infantum [2] and with Leishmania infantum [5] were 80 nM and 1230 nM, respectively. Also, the CC50 at 24 h in series [3] was 6850 nM. Also, the selectivity ratio in series [4] amounted to 85.6. The Ki at Trypanothione reductase [6] came to 2830 nM. Also, the alphaKi in series [7] amounted to 1.37 µM. In addition, the inhibition result in series [8] is “Active”.
Take `CCc1cc2c3cccn3c3cc(Cl)ccc3[n+]2nc1CC`: the IC50 on Trypanothione reductase [1] was found to be 25700 nM. Besides, the figures for the EC50 with Leishmania infantum [2] and in the series with Leishmania infantum [5] were 80 nM and 3100 nM, respectively. Besides, the CC50 at 24 h in series [3] amounted to 24300 nM. In series [4], the selectivity ratio amounted to 304.
Turning to `CCCCCCCCCCCCCCCCOP(=O)([O-])OCC[N+](C)(C)C` [MILTEFOSINE], the figures for the EC50 in the series on Leishmania infantum [2] and in the series with Leishmania infantum [5] were 520 nM and 550 nM, respectively. For the same compound, the CC50 at 24 h in series [3] came to 7690 nM. Besides, the selectivity ratio in series [4] came out at 14.8.
On to `CCN(CC)CCCC(C)Nc1c2ccc(Cl)cc2nc2ccc(OC)cc12` (stereo not drawn) [QUINACRINE], for which the IC50 at Trypanothione reductase [1] came out at 13500 nM.
